# Where two headings read alike, the source gives them in different places.
# How the values were obtained:
# GluN1/GluN2B = target: T1, GluN1/GluN2B (Rattus norvegicus, UniProt Q00960); set-up: method as in PMID 23909910; conditions: reproduced for comparison; cited from earlier work
# T1 construct: GluN2B (NM_012574.1), GluN2C (NM_012575.3), and GluN2D (NM_022797.2) were provided by; expressed in transfected cells; host or cells: Xenopus laevis oocytes (cRNA injection)
# GluN1/GluN2C [1] = target: GluN1/GluN2C (Rattus norvegicus, UniProt Q00961); assay: Whole-cell voltage-clamp recordings, HEK cells, GluN1/GluN2C (agonist dependence); format: cell-based
# Experimental: (§1) We also evaluated the mechanism of inhibition of GluN1/GluN2C expressed in HEK cells preincubated with glycine for inhibitor 2i (DQP-997-74) by comparing inhibitor potency during the peak and steady-state current responses to glutamate application. […] The deactivation of GluN1/GluN2C receptors (0.53 ± 0.07 s) was slowed by the presence of compound 2i when applied at concentrations of 1 μM (1.3 ± 0.14 s; p = 0.001) and 3 μM (2.3 ± 0.40 s; p < 0.0001) but not at 0.1 μM (0.61 ± 0.07 s; p = 0.965) and 0.3 μM (0.88 ± 0.13 s; p = 0.115; Figure S2).
# (§2) HEK293 cells (HEK, ATCC CRL-1573) were plated on glass coverslips pretreated with 0.1 mg/mL poly-D-lysine and cultured in Dulbecco’s modified Eagle medium (DMEM) plus Glutamax (GIBCO 10569-10) supplemented with 10% fetal bovine serum, 10 U/mL of penicillin, and 10 μg/mL of streptomycin at 37 °C and 5% CO2. The cells were transiently transfected with cDNA encoding rat GluN1, GluN2D, and eGFP at a ratio of 1:1:5 by using the calcium phosphate precipitation method.[48] After 24–48 h following the transfection, the cells were perfused with external recording solution that contained (in mM) 3 KCl, 150 NaCl, 0.01 EDTA, 1.0 CaCl2, 10 HEPES, and 22 D-mannitol (the pH was adjusted to 7.4 with NaOH). The patch electrodes (resistance 3–5 MΩ) were prepared from thin-walled glass micropipettes (TW150F-4, World Precision Instruments, Sarasota, FL) by a dual-stage glass micropipette puller (PC-10, Narishige, Tokyo, Japan) and filled with internal solution containing (in mM) 110 D-gluconate, 110 CsOH, 30 CsCl, 5 HEPES, 4 NaCl, 0.5 CaCl2, 2 MgCl2, 5 BAPTA, 2 NaATP, and 0.3 NaGTP. The pH was adjusted to 7.4 with CsOH; osmolality was adjusted to about 300–305 mOsmol/kg. The whole-cell current responses were evoked by application of maximally effectively concentrations of agonists (100 μM glutamate and 30 μM glycine) at a holding potential of −60 mV and recorded using an Axopatch 200B patch-clamp amplifier (Molecular Devices, Union City, CA). A two-barreled theta-glass micropipette was used for rapid solution exchange controlled by a piezoelectric translator (Burleigh Instruments, Newton, NJ). For some experiments, 500 μM NMDA and 250 μM glycine were briefly applied by pressure application from a patch pipette (tip 3–5 MΩ). The current responses were low pass filtered at 2 kHz 8-pole Bessel filter (−3 dB; Frequency Devices) and digitized at 20 kHz using Digidata 1440A acquisition system (Molecular Devices) controlled by Clampex 10.3 (Molecular Devices). All patch experiments were performed at room temperature (23 °C).
# (§3) Confidence intervals were determined for the log(IC50). The time course of relaxation during inhibitor application or deactivation following rapid removal of NMDA or glutamate was fitted by the equation [drawing 5] 2 […]
# (§4) μM), which is consistent with increased inhibitor potency late in the stimulus train after agonist is bound. […]
# (§5) inhibition of recombinant GluN1/GluN2C receptors expressed in HEK cells. GluN1/GluN2C current responses were recorded to glutamate with pre-applied glycine and compound 2i or control (pre-applied glycine and vehicle, 0.1% DMSO; see Figure S2A). The concentration-response curves show peak and steady-state responses normalized to control (Figure S2B). A linear relationship exists between 1/τinhibition and compound 2i concentration from which kON and kOFF can be calculated (see Results, Figure S2C). The deactivation time course following rapid glutamate removal was expanded to show the slowing of receptor deactivation (τdeactivation) by compound 2i (Figure S2D). τdeactivation for individual cells as well as the mean ± SEM are plotted and data were compared by mixed effects model (F (4, 17) = 22.60, p<0.0001; asterisks indicate statistically significant differences, see Results for p -values).
# (§6) 2013) and the whole cell current recordings from HEK cells of GluN1/GluN2D responses to glutamate with pre-applied (S)-2a or vehicle (0.1% DMSO). The IC50 for (S)-2a 33 (Figure S3) was 4-fold higher […]
# GluN1/GluN2C [2] = target: GluN1/GluN2C (Rattus norvegicus, UniProt P35439+Q00961); assay: as above; format: cell-based; conditions: for IC50: inhibitor and glycine preapplied
# Experimental: as §1, §2, §3, §4, §5, §6
# [3] = HEK293, linear regression of 1/τinhibition vs concentration
# GluN1/GluN2C (Rattus norvegicus, UniProt P35439+Q00961), sequence (Q00961 20-1237, other chains not shown): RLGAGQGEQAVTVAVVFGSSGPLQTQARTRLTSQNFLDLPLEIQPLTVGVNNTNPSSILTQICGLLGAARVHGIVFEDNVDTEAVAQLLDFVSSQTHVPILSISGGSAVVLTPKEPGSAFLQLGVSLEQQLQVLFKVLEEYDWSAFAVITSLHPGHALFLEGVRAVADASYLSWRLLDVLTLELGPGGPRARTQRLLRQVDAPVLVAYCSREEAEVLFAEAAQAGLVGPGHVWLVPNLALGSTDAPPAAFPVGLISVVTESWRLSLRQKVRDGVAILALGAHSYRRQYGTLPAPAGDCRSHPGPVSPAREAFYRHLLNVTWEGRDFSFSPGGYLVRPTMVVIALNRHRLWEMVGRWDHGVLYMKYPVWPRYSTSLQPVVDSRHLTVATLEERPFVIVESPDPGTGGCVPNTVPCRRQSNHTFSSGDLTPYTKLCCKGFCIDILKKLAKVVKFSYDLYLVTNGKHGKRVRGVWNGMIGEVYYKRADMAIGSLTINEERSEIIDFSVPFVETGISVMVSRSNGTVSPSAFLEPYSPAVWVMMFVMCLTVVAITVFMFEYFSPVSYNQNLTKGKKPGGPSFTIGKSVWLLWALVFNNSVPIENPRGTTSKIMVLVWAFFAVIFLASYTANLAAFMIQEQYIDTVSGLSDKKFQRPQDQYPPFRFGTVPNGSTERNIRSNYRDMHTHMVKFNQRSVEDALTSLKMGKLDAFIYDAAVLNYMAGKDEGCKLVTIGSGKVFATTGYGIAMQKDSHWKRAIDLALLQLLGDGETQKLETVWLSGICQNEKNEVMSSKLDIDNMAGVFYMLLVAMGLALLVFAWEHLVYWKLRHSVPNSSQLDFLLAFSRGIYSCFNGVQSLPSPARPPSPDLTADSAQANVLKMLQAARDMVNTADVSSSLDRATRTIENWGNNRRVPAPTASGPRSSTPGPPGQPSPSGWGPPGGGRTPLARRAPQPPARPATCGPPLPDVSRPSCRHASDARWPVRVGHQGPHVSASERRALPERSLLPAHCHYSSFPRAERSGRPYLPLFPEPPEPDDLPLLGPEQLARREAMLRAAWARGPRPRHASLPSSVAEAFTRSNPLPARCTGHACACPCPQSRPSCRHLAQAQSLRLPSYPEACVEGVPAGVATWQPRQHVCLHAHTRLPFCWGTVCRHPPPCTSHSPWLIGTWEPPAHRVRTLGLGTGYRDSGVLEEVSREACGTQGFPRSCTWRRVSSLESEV
# GluN1/GluN2C (Rattus norvegicus, UniProt Q00961), sequence (Q00961 20-1237, other chains not shown): as above
# T1 sequence (Q00960 27-1482, other chains not shown): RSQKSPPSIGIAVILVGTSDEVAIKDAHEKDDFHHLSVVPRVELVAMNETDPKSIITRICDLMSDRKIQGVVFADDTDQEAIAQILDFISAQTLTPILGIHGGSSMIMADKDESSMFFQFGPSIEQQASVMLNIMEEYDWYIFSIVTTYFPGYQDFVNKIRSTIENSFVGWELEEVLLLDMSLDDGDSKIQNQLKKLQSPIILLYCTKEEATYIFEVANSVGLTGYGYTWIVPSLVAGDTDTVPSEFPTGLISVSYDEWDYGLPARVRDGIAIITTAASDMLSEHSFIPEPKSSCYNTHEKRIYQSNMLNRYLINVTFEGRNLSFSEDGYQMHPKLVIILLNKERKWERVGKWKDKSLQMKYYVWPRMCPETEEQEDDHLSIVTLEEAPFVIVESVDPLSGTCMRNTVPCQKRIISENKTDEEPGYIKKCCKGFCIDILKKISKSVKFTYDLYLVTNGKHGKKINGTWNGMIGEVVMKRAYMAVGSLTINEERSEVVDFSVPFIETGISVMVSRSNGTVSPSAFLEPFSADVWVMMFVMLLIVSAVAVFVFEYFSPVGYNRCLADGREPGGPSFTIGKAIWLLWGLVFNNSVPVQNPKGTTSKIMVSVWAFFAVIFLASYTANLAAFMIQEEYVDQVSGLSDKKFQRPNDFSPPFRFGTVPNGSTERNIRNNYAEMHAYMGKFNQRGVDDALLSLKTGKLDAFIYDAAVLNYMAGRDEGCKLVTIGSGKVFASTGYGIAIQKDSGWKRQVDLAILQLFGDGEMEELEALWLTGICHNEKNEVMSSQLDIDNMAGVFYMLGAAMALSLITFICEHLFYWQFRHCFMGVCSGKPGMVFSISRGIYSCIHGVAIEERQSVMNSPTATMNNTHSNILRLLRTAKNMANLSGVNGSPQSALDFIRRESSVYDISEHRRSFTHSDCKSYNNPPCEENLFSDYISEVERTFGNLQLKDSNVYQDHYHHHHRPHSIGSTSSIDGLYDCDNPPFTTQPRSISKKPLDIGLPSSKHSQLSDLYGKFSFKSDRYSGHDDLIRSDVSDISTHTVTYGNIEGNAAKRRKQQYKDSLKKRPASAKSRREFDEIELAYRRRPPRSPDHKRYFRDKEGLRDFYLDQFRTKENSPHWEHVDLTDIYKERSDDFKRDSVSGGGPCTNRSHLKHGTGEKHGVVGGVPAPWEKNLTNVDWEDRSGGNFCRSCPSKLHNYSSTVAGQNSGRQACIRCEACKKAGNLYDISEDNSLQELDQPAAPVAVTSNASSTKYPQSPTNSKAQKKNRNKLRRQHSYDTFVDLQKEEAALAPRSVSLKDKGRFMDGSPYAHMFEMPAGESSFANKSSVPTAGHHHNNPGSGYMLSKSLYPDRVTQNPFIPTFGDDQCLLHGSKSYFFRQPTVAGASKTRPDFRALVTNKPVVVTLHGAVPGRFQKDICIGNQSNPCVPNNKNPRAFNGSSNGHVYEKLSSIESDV
deactivation of GluN1/GluN2C receptors (GluN1/GluN2C [1]; 0.1 μM compound) [s],deactivation of GluN1/GluN2C receptors (GluN1/GluN2C [1]; 0.3 μM compound) [s],deactivation of GluN1/GluN2C receptors (GluN1/GluN2C [1]; 1 μM compound) [s],deactivation of GluN1/GluN2C receptors (GluN1/GluN2C [1]; 3 μM compound) [s],koff (GluN1/GluN2C [2]; [3]) [s⁻¹],kon (GluN1/GluN2C [2]; [3]) [M⁻¹ s⁻¹],Kd (GluN1/GluN2C [2]; from kON and kOFF) [nM],IC50 (GluN1/GluN2C [2]; read-out: IC50 peak current responses) [nM],IC50 (GluN1/GluN2C [2]; read-out: IC50 steady-state responses) [nM],Structure (SMILES),I 30 μM / I control GluN2B (GluN1/GluN2B)
,,,,,,,,,O=C(O)CCC(=O)N1N=C(c2c(-c3ccc(Cl)cc3)c3ccccc3[nH]c2=O)CC1c1ccc(Cl)cc1 (stereo not shown) [2a],"44 ± 1.6 (2,8) %"
0.61 ± 0.07,0.88 ± 0.13,1.3 ± 0.14,2.3 ± 0.40,0.27,800000,330,5000,250,O=C(O)CC(F)(F)C(=O)N1N=C(c2c(-c3ccc(Cl)cc3)c3ccccc3[nH]c2=O)CC1c1ccc(Cl)cc1 (stereo not shown) [2i],

# — paper PMC10485906, “Development of a Dihydroquinoline–Pyrazoline GluN2C/2D-Selective Negative Allosteric Modulator of the N-Methyl-D-aspartate Receptor” (ACS Chemical Neuroscience, 2023)
